According to patent US10669276B2, “Fused pyrimidine derivatives” (Hoffmann-La Roche Inc., priority 2016, dated 2020):

Target: γ-secretase (Homo sapiens (Human), UniProt P49768)
Assay: Cellular γ-secretase assay (Aβ42 secretion, AlphaLisa)
Assay type: cell-based
Details: inhibition of Aβ42 secretion; human neuroglioma H4 cells overexpressing human APP695 Swedish double mutation; 24 hr compound incubation
Protocol: Human neuroglioma H4 cells overexpressing human APP695 with the Swedish double mutation (K595N/M596L) were plated at 30,000 cells/well/100 μl in 96-well plates in IMDM media containing 10% FCS, 0.2 mg/l Hygromycin B and incubated at 37° C., 5% CO2.
3-4 hr post plating, compounds are a diluted in media and 50 μl is added as […] concentrate to achieve the final concentration. Compound incubation is performed for 24 hr. Final doses typically range from 4 μM down to 0.0013 μM in half-log steps resulting in an eight point dose response curve. Appropriate controls using vehicle only and reference compound were applied to this assay. The final concentration of Me2SO was 0.4%.
After incubation at 37° C., 5% CO2, the supernatant was subjected to quantification of secreted Aβ42 by the means of an AlphaLisa assay kit (Human Amyloid beta 1-42 Kit: Cat # AL203C, Perkin Elmer). 20 μl of the cell culture supernatant was transferred to an assay plate. Then 10 μl of a mixture of the AlphaLisa coupled capture antibody and the biotinylated detection antibody was added and incubated for 3 hours at room temperature while softly shaking the assay plate. After a further addition of 20 μl of the Donor beads the assay plate was incubated for 30 min at room temperature and constant shaking without exposure to direct light. The assay plate was then read on a Paradigm AlphaLisa Reader using the build-in program with excitation at 680 nm and emission at […]. The measured signals were then used to calculate IC50 values for inhibition of Aβ42 secretion by nonlinear regression fit analysis using XLfit 5.3 software (IDBS).

Row | SMILES | EC50
1 | CNc1nc(Nc2ccc(-n3cnc(C)c3)c(F)c2)nc2c1[C@@H](C)CN2c1ccc(F)cc1 (single isomer, unassigned) [Example 46q, (R)— or (S)—N2-(3-Fluoro-4-(4-methyl-1H-imidazol-1-yl)phenyl)-7-(4-fluorophenyl)-N4,5-dimethyl-6,7-dihydro-5H-pyrrolo[2,3-d]pyrimidine-2,4-diamine] | 7 nM
2 | CNc1nc(Nc2ccc(-n3cnc(C)c3)cc2)nc2c1C(C)(C)CN2c1ccc(F)cc1 [Example 12, 7-(4-Fluorophenyl)-N4,5,5-trimethyl-N2-(4-(4-methyl-1H-imidazol-1-yl)phenyl)-6,7-dihydro-5H-pyrrolo[2,3-d]pyrimidine-2,4-diamine] | 13 nM
3 | CNc1nc(Nc2cnc(-n3cnc(C)c3)c(OC)c2)nc2c1C(C)(C)CN2C1CC(F)(F)C1 [Example 18, 7-(3,3-Difluorocyclobutyl)-N2-(5-methoxy-6-(4-methyl-1H-imidazol-1-yl)pyridin-3-yl)-N4,5,5-trimethyl-6,7-dihydro-5H-pyrrolo[2,3-d]pyrimidine-2,4-diamine] | 14 nM
4 | CNc1nc(Nc2ccc(-n3cnc(C)c3)c(F)c2)nc2c1C(C)(C)CN2c1ccc(F)cc1Cl [Example 45, 7-(2-Chloro-4-fluorophenyl)-N2-(3-fluoro-4-(4-methyl-1H-imidazol-1-yl)phenyl)-N4,5,5-trimethyl-6,7-dihydro-5H-pyrrolo[2,3-d]pyrimidine-2,4-diamine] | 4 nM
5 | CNc1nc(Nc2cnc(-n3cnc(C)c3)c(OC)c2)nc2c1C(C)(C)CN2c1ccc(F)c(F)c1 [Example 15, 7-(3,4-Difluorophenyl)-N2-(5-methoxy-6-(4-methyl-1H-imidazol-1-yl)pyridin-3-yl)-N4,5,5-trimethyl-6,7-dihydro-5H-pyrrolo[2,3-d]pyrimidine-2,4-diamine] | 8 nM
6 | CNc1nc(Nc2ccc(-n3cnc(C)n3)c(F)c2)nc2c1C(C)(C)CN2c1ccc(F)cc1 [Example 3, N2-(3-Fluoro-4-(3-methyl-1H-1,2,4-triazol-1-yl)phenyl)-7-(4-fluorophenyl)-N4,5,5-trimethyl-6,7-dihydro-5H-pyrrolo[2,3-d]pyrimidine-2,4-diamine] | 16 nM
7 | CNc1nc(Nc2ccc(-n3cnc(C)c3)c(F)c2)nc2c1C(C)(C)CCN2c1ccc(F)cc1 [Example 37, N2-(3-Fluoro-4-(4-methyl-1H-imidazol-1-yl)phenyl)-8-(4-fluorophenyl)-N4,5,5-trimethyl-5,6,7,8-tetrahydropyrido[2,3-d]pyrimidine-2,4-diamine] | 8 nM
8 | CNc1nc(Nc2ccc(-n3cnc(C)c3)c(F)c2)nc2c1C(C)(C)CN2c1ccc(F)cc1 [Example 34, N2-(3-Fluoro-4-(4-methyl-1H-imidazol-1-yl)phenyl)-7-(4-fluorophenyl)-N4,5,5-trimethyl-6,7-dihydro-5H-pyrrolo[2,3-d]pyrimidine-2,4-diamine] | 8 nM
9 | CNc1nc(Nc2ccc(-n3cnc(C)c3)c(F)c2)nc2c1C(C)(C)CN2c1cccc(F)c1F [Example 43, 7-(2,3-Difluorophenyl)-N2-(3-fluoro-4-(4-methyl-1H-imidazol-1-yl)phenyl)-N4,5,5-trimethyl-6,7-dihydro-5H-pyrrolo[2,3-d]pyrimidine-2,4-diamine] | 5 nM
10 | CNc1nc(Nc2ccc(-n3cnc(C)n3)nc2)nc2c1C(C)(C)CN2c1ccc(F)cc1 [Example 13, 7-(4-Fluorophenyl)-N4,5,5-trimethyl-N2-(6-(3-methyl-1H-1,2,4-triazol-1-yl)pyridin-3-yl)-6,7-dihydro-5H-pyrrolo[2,3-d]pyrimidine-2,4-diamine] | 23 nM
11 | CNc1nc(Nc2ccc(-n3cnc(C)c3)c(F)c2)nc2c1[C@H](C)CN2c1ccc(F)cc1 (single isomer, unassigned) [Example 46p, (S)- or (R)—N2-(3-Fluoro-4-(4-methyl-1H-imidazol-1-yl)phenyl)-7-(4-fluorophenyl)-N4,5-dimethyl-6,7-dihydro-5H-pyrrolo[2,3-d]pyrimidine-2,4-diamine] | 5 nM
12 | CNc1nc(Nc2cnc(-n3cnc(Cl)c3)c(OC)c2)nc2c1C(C)(C)CN2c1ccc(F)cc1 [Example 6, N2-(6-(4-Chloro-1H-imidazol-1-yl)-5-methoxypyridin-3-yl)-7-(4-fluorophenyl)-N4,5,5-trimethyl-6,7-dihydro-5H-pyrrolo[2,3-d]pyrimidine-2,4-diamine] | 9 nM
13 | CNc1nc(Nc2ccc(-n3cnc(C)n3)c(OC)c2)nc2c1C(C)CN2c1ccc(F)cc1 (centres unmarked) [Example 39, 7-(4-Fluorophenyl)-N2-(3-methoxy-4-(3-methyl-1H-1,2,4-triazol-1-yl)phenyl)-N4,5-dimethyl-6,7-dihydro-5H-pyrrolo[2,3-d]pyrimidine-2,4-diamine] | 6 nM
14 | CNc1nc(Nc2ccc(-n3cnc(C)n3)c(F)c2)nc2c1C(C)(C)CN2c1ccc(F)c(F)c1 [Example 9, 7-(3,4-Difluorophenyl)-N2-(3-fluoro-4-(3-methyl-1H-1,2,4-triazol-1-yl)phenyl)-N4,5,5-trimethyl-6,7-dihydro-5H-pyrrolo[2,3-d]pyrimidine-2,4-diamine] | 26 nM
15 | COc1cc(Nc2nc(NCCO)c3c(n2)N(c2ccc(F)cc2)CC3(C)C)cnc1-n1cnc(C)c1 [Example 29, 2-((7-(4-Fluorophenyl)-2-((5-methoxy-6-(4-methyl-1H-imidazol-1-yl)pyridin-3-yl)amino)-5,5-dimethyl-6,7-dihydro-5H-pyrrolo[2,3-d]pyrimidin-4-yl)amino)ethanol] | 6 nM
16 | CNc1nc(Nc2cnc(-n3cnc(Cl)c3)c(OC)c2)nc2c1C(C)(C)CN2c1ccc(F)c(F)c1 [Example 14, N2-(6-(4-Chloro-1H-imidazol-1-yl)-5-methoxypyridin-3-yl)-7-(3,4-difluorophenyl)-N4,5,5-trimethyl-6,7-dihydro-5H-pyrrolo[2,3-d]pyrimidine-2,4-diamine] | 10 nM
17 | COc1cc(Nc2nc(NCCO)c3c(n2)N(c2ccc(F)cc2)CC3(C)C)ccc1-n1cnc(C)n1 [Example 28, 2-((7-(4-Fluorophenyl)-2-((3-methoxy-4-(3-methyl-1H-1,2,4-triazol-1-yl)phenyl)amino)-5,5-dimethyl-6,7-dihydro-5H-pyrrolo[2,3-d]pyrimidin-4-yl)amino)ethanol] | 8 nM
18 | CNc1nc(Nc2ccc(-n3cnc(C)n3)c(OC)c2)nc2c1C(C)(C)CN2c1ccc(F)c(F)c1 [Example 8, 7-(3,4-Difluorophenyl)-N2-(3-methoxy-4-(3-methyl-1H-1,2,4-triazol-1-yl)phenyl)-N4,5,5-trimethyl-6,7-dihydro-5H-pyrrolo[2,3-d]pyrimidine-2,4-diamine] | 5 nM
19 | CNc1nc(Nc2cnc(-n3cnc(C)c3)c(F)c2)nc2c1C(C)(C)CN2c1cccc(F)c1F [Example 42, 7-(2,3-Difluorophenyl)-N2-(5-fluoro-6-(4-methyl-1H-imidazol-1-yl)pyridin-3-yl)-N4,5,5-trimethyl-6,7-dihydro-5H-pyrrolo[2,3-d]pyrimidine-2,4-diamine] | 8 nM
20 | CNc1nc(Nc2ccc(-n3cnc(Cl)c3)c(OC)c2)nc2c1C(C)(C)CN2c1ccc(F)cc1 [Example 4, N2-(4-(4-Chloro-1H-imidazol-1-yl)-3-methoxyphenyl)-7-(4-fluorophenyl)-N4,5,5-trimethyl-6,7-dihydro-5H-pyrrolo[2,3-d]pyrimidine-2,4-diamine] | 7 nM
